Consider 1 compound from patent publication US20060115804A1, “Method of studying living cells” (priority 2002, published 2006).

In the experiment the test system is Primary human osteoblasts. Nature of the experiment: Formation and mineralisation of bone nodules (962 cm^-1 hydroxyapatite Raman peak) by osteoblasts cultured on 45S5 Bioglass. Type of experiment: cell-based. To be noted: culture medium supplemented with BGP; cells on 45S5 Bioglass substrates. On the procedure: Primary human osteoblasts were cultured on 45S5 Bioglass® substrates in order to induce formation of new bone. The formation of new bone can be detected with high sensitivity using Raman spectroscopy with 785 nm lasers by detecting the 962 cm^−1 Raman peak of hydroxyapatite (the mineral phase of bone). […] Only peaks corresponding to intrinsic cellular components were measured.

Turning to `O=P(O)(O)OC(CO)CO` [beta-glycerophosphate (BGP), beta-glycerophosphate], the “Hydroxyapatite Raman peak (formation of bone nodules)” value is “a strong peak corresponding to hydroxyapatite was detected”.
